How the values were obtained:
MRSA (SA 180-F strain) [1] = assay: Mature biofilms, crystal violet staining; assay type: cell-based, methicillin-resistant Staphylococcus aureus; parameters: key: ↓: Decrease in the parameter (optical density) compared to the negative control; −: No decrease in the parameter; ↑: Reverse effect (increase in the optical density compared to the control); settings: mature biofilm: peptide added after 24 h, further 24 h; 0.01-10 mg/mL
Method: (§1) After 24 h of incubation, the medium was removed. To assess the total biofilm biomass, the wells were rinsed with sterile PBS solution and stained with 0.1% crystal violet. The dye bound to the surface was then removed using 95% ethanol. To assess the presence of metabolically active cells, 0.3% MTT (PanEco Ltd., Moscow, Russia) solution was added to each well, and the plates were incubated at 37 °C for 2 h. After incubation, the MTT solution was removed, 150 µL of DMSO (Chimmed, Moscow, Russia) and 25 µL of glycine buffer were added to each well, and the plates were left at room temperature for 15 min. The resulting solutions were transferred to a flat-bottom 96-well plate, and optical density was measured at 595 nm.
(§2) A stationary-phase culture of the tested strain was diluted 100-fold in fresh medium (200 µL per well) and added to the wells of a 96-well round-bottom plate. […] After another 24 h, the medium was removed and the wells were rinsed with sterile PBS to eliminate planktonic cells. The procedures for assessing total biofilm biomass and cell metabolic activity using crystal violet and MTT assays were performed in the same manner as described above for early-stage biofilm experiments.

E. coli (MG1655 strain) [2] = assay: Early biofilm formation, crystal violet staining; assay type: cell-based, Escherichia coli; parameters: key: ↓: Decrease in the parameter (optical density) compared to the negative control; −: No decrease in the parameter; ↑: Reverse effect (increase in the optical density compared to the control); settings: peptide present from inoculation, 24 h, OD 595 nm
Method: as §1

[3] = system: P. aeruginosa (2943 strain); assay: Mature biofilms, crystal violet staining; assay type: cell-based, Pseudomonas aeruginosa; parameters: key: ↓: Decrease in the parameter (optical density) compared to the negative control; −: No decrease in the parameter; ↑: Reverse effect (increase in the optical density compared to the control); settings: mature biofilm: peptide added after 24 h, further 24 h; 0.01-10 mg/mL
Method: as §1, §2

S. aureus (129B strain) [4] = assay: Antibacterial activity in liquid medium (optical density); assay type: cell-based, Staphylococcus aureus; parameters: key to change of optical density vs negative control: ↓: Decrease in the parameter (optical density) compared to the negative control; −: No decrease in the parameter; ↑: Reverse effect (increase in the optical density compared to the control); settings: 24 h, 37 °C; for change of optical density vs negative control: OD 595 nm
Method: (§3) To evaluate the antibacterial activity of peptides in liquid culture, a stationary-phase culture of the tested bacterial strain was diluted 100-fold in fresh medium containing peptides or gentamicin (positive control) at the specified concentrations. A total volume of 200 µL was added to each well of a 96-well round-bottom microtiter plate. After 24 h of incubation at 37 °C, the samples were transferred to a flat-bottom 96-well microtiter plate, and the optical density was measured at 595 nm. Separately, the optical density of medium containing peptides but no bacteria was measured. These values were used as baseline (zero) readings for subsequent data analysis.

S. aureus (129B strain) [5] = assay: Early biofilm formation, crystal violet staining; assay type: cell-based, Staphylococcus aureus; parameters: key: ↓: Decrease in the parameter (optical density) compared to the negative control; −: No decrease in the parameter; ↑: Reverse effect (increase in the optical density compared to the control); settings: peptide present from inoculation, 24 h, OD 595 nm
Method: as §1

E. coli (MG1655 strain) [6] = assay: Mature biofilms, MTT assay; assay type: cell-based, Escherichia coli; parameters: key: ↓: Decrease in the parameter (optical density) compared to the negative control; −: No decrease in the optical density; ↑: Reverse effect (increase in the optical density compared to the control); settings: mature biofilm: peptide added after 24 h, further 24 h; 0.01-10 mg/mL
Method: as §1, §2

E. coli (MG1655 strain) [7] = assay: Antibacterial activity in liquid medium (optical density); assay type: cell-based, Escherichia coli; parameters: key to change of optical density vs negative control: ↓: Decrease in the parameter (optical density) compared to the negative control; −: No decrease in the parameter; ↑: Reverse effect (increase in the optical density compared to the control); settings: 24 h, 37 °C; for change of optical density vs negative control: OD 595 nm
Method: as §3

[8] = system: P. aeruginosa (2943 strain); assay: Antibacterial activity on 0.7% agar (inhibition zone); assay type: cell-based, Pseudomonas aeruginosa; parameters: key: +: The presence of a bacterial growth inhibition zone; −: The absence of a bacterial growth inhibition zone; settings: drop on 0.7% agar, 24 h
Method: (§4) Drops of the samples were applied to the surface of solidified 0.7% agar at the concentrations indicated in Table 2 and Supplementary S2 (Figures S1–S4). After 24 h of incubation, the results were evaluated based on the presence or absence (+/−) of inhibition zones.
(§5) Once the agar solidified, drops of peptide samples at the concentrations 1, 0.1, 0.01, and 0.001 mg/mL were applied to the agar surface.

S. aureus (129B strain) [9] = assay: as above; assay type: cell-based, Staphylococcus aureus; parameters: key: +: The presence of a bacterial growth inhibition zone; −: The absence of a bacterial growth inhibition zone; settings: drop on 0.7% agar, 24 h
Method: as §4, §5

MRSA (SA 180-F strain) [10] = assay: as above; assay type: cell-based, methicillin-resistant Staphylococcus aureus; parameters: key: +: The presence of a bacterial growth inhibition zone; −: The absence of a bacterial growth inhibition zone; settings: drop on 0.7% agar, 24 h
Method: as §4, §5

[11] = system: P. aeruginosa (2943 strain); assay: Early biofilm formation, MTT assay; assay type: cell-based, Pseudomonas aeruginosa; parameters: key: ↓: Decrease in the parameter (optical density) compared to the negative control; −: No decrease in the parameter; ↑: Reverse effect (increase in the optical density compared to the control); settings: 24 h, 0.3% MTT 2 h 37 °C, OD 595 nm
Method: as §1

Sequence	change of optical density after crystal violet staining vs negative control (MRSA (SA 180-F strain) [1])	change of optical density after crystal violet staining vs negative control (E. coli (MG1655 strain) [2])	change of optical density after crystal violet staining vs negative control [3]	concentration given with ↓ (decrease in optical density) (S. aureus (129B strain) [4])	change of optical density vs negative control (S. aureus (129B strain) [4])	change of optical density after crystal violet staining vs negative control (S. aureus (129B strain) [5])	change of optical density after MTT assay vs negative control (E. coli (MG1655 strain) [6])	change of optical density vs negative control (E. coli (MG1655 strain) [7])	bacterial growth inhibition zone ([8]; 0.001 mg/mL)	bacterial growth inhibition zone ([8]; 0.01 mg/mL)	bacterial growth inhibition zone ([8]; 0.1 mg/mL)	bacterial growth inhibition zone ([8]; 1 mg/mL)	bacterial growth inhibition zone (S. aureus (129B strain) [9]; 0.001 mg/mL)	bacterial growth inhibition zone (S. aureus (129B strain) [9]; 0.01 mg/mL)	bacterial growth inhibition zone (S. aureus (129B strain) [9]; 0.1 mg/mL)	bacterial growth inhibition zone (S. aureus (129B strain) [9]; 1 mg/mL)	bacterial growth inhibition zone (MRSA (SA 180-F strain) [10]; 0.001 mg/mL)	bacterial growth inhibition zone (MRSA (SA 180-F strain) [10]; 0.01 mg/mL)	bacterial growth inhibition zone (MRSA (SA 180-F strain) [10]; 0.1 mg/mL)	bacterial growth inhibition zone (MRSA (SA 180-F strain) [10]; 1 mg/mL)	also measured
ITDFGIFIGLGGGGSRQIKIWFQNRRMKWKK [I31K^P]	↑	↑	↑	0.1 mg/mL	↓ (0.1 mg/mL)	↑	−	−													
RKKRRQRRRGGGGITDFGIFIGL [R23L^P]		↑	↑	1 mg/mL	↓ (1 mg/mL)	↑	−	↓ (0.1 mg/mL)	−	−	−	+	−	−	−	+	−	−	−	+	change of optical density after MTT assay vs negative control [11]: ↑; concentration given with ↓ (decrease in optical density) (E. coli (MG1655 strain) [7]): 0.1 mg/mL
RKKRRQRRRGGGGVTDFGVFVEI [R23I^T, TAT cell-penetrating peptide linked via glycine linker to amyloidogenic fragment of S1 ribosomal protein of T. thermophilus]		↑			↑	↑		↑	−	−	−	+	−	−	−	+	−	−	−	+	
RKKRRQRRRGGGGVVVHINGGKFGGGGSRQIKIWFQNRRMKWKK [R44K^S]	↑	↑	↑	10 mg/mL	↓ (10 mg/mL)	↑		↓ (0.1 mg/mL)	−	−	−	+	−	−	−	+	−	−	−	+	bacterial growth inhibition zone ([8]; 1 mg/mL, listed as R44K^P): −; change of optical density vs negative control (S. aureus (129B strain) [4]; listed as R44K^P): ↑; bacterial growth inhibition zone (MRSA (SA 180-F strain) [10]; 1 mg/mL, listed as R44K^P): −; change of optical density after MTT assay vs negative control ([11]; listed as R44K^P): ↓ (10 mg/mL); concentration given with ↓ (decrease in optical density) (E. coli (MG1655 strain) [7]): 0.1 mg/mL
